Test [1] relates to BJ. Put plainly: Cytotoxicity against human BJ cells after 72 hrs by Cell TitreGlo assay. Type of test: cell-based.
In test [2] the target is T1, 11-beta-hydroxysteroid dehydrogenase type 2 (Homo sapiens, UniProt P80365).
T1 sequence (P80365 whole entry): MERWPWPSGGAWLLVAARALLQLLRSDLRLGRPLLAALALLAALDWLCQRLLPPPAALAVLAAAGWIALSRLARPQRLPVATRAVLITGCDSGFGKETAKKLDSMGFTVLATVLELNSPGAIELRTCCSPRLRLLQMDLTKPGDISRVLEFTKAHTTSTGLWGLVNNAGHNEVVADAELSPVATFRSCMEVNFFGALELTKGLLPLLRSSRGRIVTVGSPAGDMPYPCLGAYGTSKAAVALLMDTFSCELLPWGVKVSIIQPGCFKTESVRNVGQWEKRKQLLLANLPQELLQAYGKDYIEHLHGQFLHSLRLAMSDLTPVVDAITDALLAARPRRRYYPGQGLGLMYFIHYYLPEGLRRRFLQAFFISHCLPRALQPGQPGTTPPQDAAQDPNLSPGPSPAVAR
Put plainly: Inhibition of full length human 11beta-HSD2 expressed in HEK293 cells using […] as substrate incubated for 2 hrs by HTRF assay in presence of NAD+. Type of test: cell-based. Background: In TR-FRET formats the signal depends on donor and acceptor labels being close together.

Test [3] concerns the target 11-beta-hydroxysteroid dehydrogenase 1 (Homo sapiens, UniProt P28845). Put plainly: Inhibition of 11beta-HSD1 (unknown origin) using cortisol as substrate assessed as NADPH formation by fluorescent plate reader analysis.

11-beta-hydroxysteroid dehydrogenase 1, sequence (P28845 whole entry): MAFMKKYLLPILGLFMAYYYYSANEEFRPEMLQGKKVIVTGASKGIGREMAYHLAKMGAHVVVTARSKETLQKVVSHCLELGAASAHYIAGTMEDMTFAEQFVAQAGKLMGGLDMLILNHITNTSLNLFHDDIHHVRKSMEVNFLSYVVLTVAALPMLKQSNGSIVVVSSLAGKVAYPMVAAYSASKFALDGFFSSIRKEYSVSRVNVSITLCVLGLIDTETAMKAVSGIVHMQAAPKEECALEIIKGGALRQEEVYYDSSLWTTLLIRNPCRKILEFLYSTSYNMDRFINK

As usually defined, the EC50 is the concentration needed to bring the measured effect to its halfway point. Higher therefore signals weaker potency. By IC50 is commonly meant the concentration at which inhibition is half-maximal. In test [1], `CC(C)C1=CC[C@H](CN2C(=O)c3ccccc3S2(=O)=O)[C@@]12C=CC(=O)CC2` had an EC50 greater than 90 µM. Besides, the IC50 is greater than 1 mM in test [2] and 0.341 mM in test [3].
Turning to `CC(C)C1=CC[C@H](CSc2nnnn2-c2ccccc2)[C@@]12C=CC(=O)CC2`, the EC50 in test [1] is greater than 90 µM. Also, the IC50 in test [2] and in test [3] was greater than 1 mM each time.
Turning to `CC(C)C1=CC[C@H](CSc2ccc3ccccc3c2)[C@@]12C=CC(=O)CC2`, the EC50 in test [1] was greater than 90 µM. Besides, the IC50 in test [2] and in test [3] was greater than 1 mM throughout.
Consider `CC(C)C1=CC[C@H](Cn2cc(CNC(=O)OC(C)(C)C)nn2)[C@@]12C=CC(=O)CC2`, for which the EC50 in test [1] is greater than 90 µM. The IC50 in test [2] and in test [3] was greater than 1 mM in each case.
On to `CC(C)C1=CC[C@H](Cn2cc(CN(c3ncccn3)S(=O)(=O)c3ccc(N)cc3)nn2)[C@@]12C=CC(=O)CC2`, for which the EC50 in test [1] is greater than 90 µM. Moreover, the IC50 in test [2] and in test [3] was greater than 1 mM in each case.
For `CCn1c2ccccc2c2nnc(SC[C@H]3CC=C(C(C)C)[C@]34C=CC(=O)CC4)nc21`, the EC50 in test [1] is greater than 90 µM. Further, the IC50 in test [2] was greater than 1 mM; in test [3], 0.033 mM.
For `COc1ccc(S(=O)(=O)NCc2cn(C[C@H]3CC=C(C(C)C)[C@]34C=CC(=O)CC4)nn2)cc1`, the EC50 in test [1] was greater than 90 µM. Moreover, the IC50 in test [2] and in test [3] was greater than 1 mM in each case.
For the molecule `CC(C)C1=CC[C@H](CN2C(=O)c3ccccc3C2=O)[C@@]12C=CC(=O)CC2`, the EC50 in test [1] is greater than 90 µM. For the same molecule, the IC50 in test [2] and in test [3] was greater than 1 mM in each case.

These data come from ChEMBL document CHEMBL3763116, “Synthesis and evaluation of colletoic acid core derivatives” (Eur J Med Chem, 2016).
